Measured values as given in US6500853B1, “Inhibitors of phospholipase enzymes” (Genetics Institute, LLC, priority 1998, dated 2002).

Molecular target: T1, cPLA2 (Homo sapiens, UniProt P47712)
T1 sequence (P47712 1-749): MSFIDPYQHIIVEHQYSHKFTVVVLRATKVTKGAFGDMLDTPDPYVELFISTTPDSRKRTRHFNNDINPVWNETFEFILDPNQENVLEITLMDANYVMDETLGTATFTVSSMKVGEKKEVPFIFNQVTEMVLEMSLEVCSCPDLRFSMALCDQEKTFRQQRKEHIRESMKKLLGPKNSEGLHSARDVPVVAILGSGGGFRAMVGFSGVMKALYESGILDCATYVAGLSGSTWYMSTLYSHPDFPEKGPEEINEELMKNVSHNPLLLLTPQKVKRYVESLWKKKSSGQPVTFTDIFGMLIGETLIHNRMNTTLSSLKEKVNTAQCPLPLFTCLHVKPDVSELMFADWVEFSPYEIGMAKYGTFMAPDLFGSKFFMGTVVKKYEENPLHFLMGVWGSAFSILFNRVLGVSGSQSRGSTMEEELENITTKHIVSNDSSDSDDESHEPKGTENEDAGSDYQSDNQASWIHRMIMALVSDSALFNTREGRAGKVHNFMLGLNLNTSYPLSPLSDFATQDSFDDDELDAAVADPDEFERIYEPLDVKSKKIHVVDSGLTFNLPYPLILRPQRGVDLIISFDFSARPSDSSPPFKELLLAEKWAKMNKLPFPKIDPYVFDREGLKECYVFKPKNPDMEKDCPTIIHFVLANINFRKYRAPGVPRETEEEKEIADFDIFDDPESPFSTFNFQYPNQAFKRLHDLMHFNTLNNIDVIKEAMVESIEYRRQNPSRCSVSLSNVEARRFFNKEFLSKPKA
Assay: Coumarin Assay (cPLA2 inhibition)
Assay type: biochemical
Conditions: for inhibition at 0.4 µM: read-out: PERCENT INHIBITION @; for inhibition at 2.5 µM: Conc 2.5 uM; for inhibition at 3 µM: Conc 3 uM; for inhibition at 3.3 µM: Conc 3.3 uM
Method in brief: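 Percent inhibition at the stated concentration, from the rate of 460 nm emission rise (360 nm excitation) per minute. Reaction started by adding 4 μg enzyme to compound and 60 μM 7-hydroxycoumarinyl 6-heptenoate in Hepes buffer pH 7.5 with 1 mM EDTA.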

## COc1cc(C(=O)O)ccc1Cc1cn(C(c2ccccc2)c2ccc(N)cc2)c2cc(Cl)ccc12 (stereo not drawn) [Example 132, ′4-({1-[(4-aminophenyl)(phenyl)methyl]-6-chloro-1H-indol-3-yl}methyl)-3-methoxybenzoic acid]
CONCENTRATION 0.4 micromolar
  PERCENT INHIBITION @: 50%

## COc1ccc(C(c2ccccc2)n2cc(Cc3ccc(C(=O)O)cc3OC)c3ccc(Cl)cc32)cc1 (stereo not drawn) [Example 133, ′4-({6-chloro-1-[(4-methoxyphenyl)(phenyl)methyl]-1H-indol-3-yl}methyl)-3-methoxybenzoic acid]
CONCENTRATION 0.3 micromolar
  PERCENT INHIBITION @: 50%

## COc1ccc(C(c2ccc(OC)cc2)n2cc(Cc3ccc(C(=O)O)cc3OC)c3ccc(Cl)cc32)cc1 [Example 134, ′4-({1-[bis(4-methoxyphenyl)methyl]-6-chloro-1H-indol-3-yl}methyl)-3-methoxybenzoic acid]
CONCENTRATION 0.8 micromolar
  PERCENT INHIBITION @: 50%

## COc1cc(C(=O)O)ccc1Cc1cn(C(c2ccccc2)c2ccccc2N2CCOCC2)c2cc(Cl)ccc12 (stereo not drawn) [Example 135, ′4-({6-chloro-1-[(2-morpholinophenyl)(phenyl)methyl]-1H-indol-3-yl}methyl)-3-methoxybenzoic acid]
CONCENTRATION 0.7 micromolar
  PERCENT INHIBITION @: 50%

## COc1ncc(C(c2ccccc2)n2cc(Cc3ccc(C(=O)O)cc3OC)c3ccc(Cl)cc32)c(OC)n1 (stereo not drawn) [Example 136, 4-({6-chloro-1-[(2,4-dimethoxy-5-pyrimidinyl)(phenyl)methyl]-1H-indol-3-yl}methyl)-3-methoxybenzoic acid]
CONCENTRATION 0.4 micromolar
  inhibition at 0.4 µM: 50%

## COc1cc(C(=O)O)ccc1Cc1cn(C(c2ccccc2)c2ccccc2)c2cc(Cl)ccc12 [Example 137, ′4-[(1-benzhydryl-6-chloro-1H-indol-3-yl)methyl]-3-methoxybenzoic acid]
CONCENTRATION 0.8 micromolar
  PERCENT INHIBITION @: 50%

## COc1cc(C(=O)NCC(=O)O)ccc1Cc1cn(C(c2ccccc2)c2ccccc2)c2cc(Cl)ccc12 [Example 138, 2-({4-[(1-benzhydryl-6-chloro-1H-indol-3-yl)methyl]-3-methoxybenzoyl}amino)acetic acid]
CONCENTRATION 0.4 micromolar
  inhibition at 0.4 µM: 50%

## Cc1c(CCS(=O)(=O)c2ccc(C(=O)O)cc2)c2cc(F)ccc2n1C(c1ccccc1)c1ccccc1 [Example 139, 4-{[2-(1-benzhydryl-5-fluoro-2-methyl-1H-indol-3-yl)ethyl]sulfonyl}benzoic acid]
Conc 1.6 uM, read-out: % Inhibition
  inhibition at 1.6 µM: 50%

## Cc1c(CCS(=O)(=O)c2ccc(C(=O)O)cc2)c2ccc(Cl)cc2n1C(c1ccccc1)c1ccccc1 [Example 140, 4-{[2-(1-benzhydryl-6-chloro-2-methyl-1H-indol-3-yl)ethyl]sulfonyl}benzoic acid]
read-out: % Inhibition
  inhibition at 2.5 µM: 50%

## Cc1c(CCS(=O)(=O)c2ccc(C(=O)O)cc2)c2c(Cl)c(Cl)ccc2n1C(c1ccccc1)c1ccccc1 [Example 141, 4-{[2-(1-benzhydryl-4,5-dichloro-2-methyl-1H-indol-3-yl)ethyl]sulfonyl}benzoic acid]
Conc 1.4 uM, read-out: % Inhibition
  inhibition at 1.4 µM: 50%

## Cc1c(CCS(=O)(=O)c2ccc(C(=O)O)cc2)c2cc(Cl)c(Cl)cc2n1C(c1ccccc1)c1ccccc1 [Example 142]
Conc 1.4 uM
  % Inhibition: 50%

## Cc1c(CCS(=O)(=O)c2ccc(C(=O)O)cc2)c2ccccc2n1C(c1ccccc1)c1ccccc1 [Example 143, 4-{[2-(1-benzhydryl-2-methyl-1H-indol-3-yl)ethyl]sulfonyl}benzoic acid]
read-out: % Inhibition
  inhibition at 3 µM: 50%

## COc1ccc2c(c1)c(CCS(=O)(=O)c1ccc(C(=O)O)cc1)c(C)n2C(c1ccccc1)c1ccccc1 [Example 144, 4-{[2-(1-benzhydryl-5-methoxy-2-methyl-1H-indol-3-yl)ethyl]sulfonyl}benzoic acid]
Conc 12 uM, read-out: % Inhibition
  inhibition at 12 µM: 50%

## Cc1c(CCOc2ccc(C(=O)O)cc2)c2cc(Br)ccc2n1C(c1ccccc1)c1ccccc1 [Example 145, 4-[2-(1-benzhydryl-5-bromo-2-methyl-1H-indol-3-yl)ethoxy]benzoic acid]
Conc 2.6 uM
  inhibition at 2.6 µM: 50%

## Cc1c(CCSc2ccc(C(=O)O)cc2)c2cc(Cl)ccc2n1C(c1ccccc1)c1ccccc1 [Example 146, 4-{[2-(1-benzhydryl-5-chloro-2-methyl-1H-indol-3-yl)ethyl]sulfany}benzoic acid]
Conc 1.6 uM
  % Inhibition: 50%

## Cc1c(CCS(=O)(=O)c2ccc(C(=O)O)cc2)c2cc(Cl)ccc2n1C(c1ccccc1)c1ccccc1 [Example 147, 4-{[2-(1-benzhydryl-5-chloro-2-methyl-1H-indol-3-yl)ethyl]sulfonyl}benzoic acid]
Conc 2.4 uM, read-out: % Inhibition
  inhibition at 2.4 µM: 50%

## Cc1c(CC[S+]([O-])c2ccc(C(=O)O)cc2)c2cc(Cl)ccc2n1C(c1ccccc1)c1ccccc1 (stereo not drawn) [Example 148, 4-{[2-(1-benzhydryl-5-chloro-2-methyl-1H-indol-3-yl)ethyl]sulfinyl}benzoic acid]
Conc 2.8 uM
  inhibition at 2.8 µM: 50%

## Cc1c(CCOc2ccc(C(=O)O)cc2)c2cc(Cl)ccc2n1C(c1ccccc1)c1ccccc1 [Example 149, 4-[2-(1-benzhydryl-5-chloro-2-methyl-1H-indol-3-yl)ethoxy]benzoic acid]
read-out: % Inhibition
  inhibition at 2.5 µM: 50%

## O=Cc1c(CCOc2ccc(C(=O)O)cc2)c2cc(Cl)ccc2n1C(c1ccccc1)c1ccccc1 [Example 150, 4-[2-(1-benzhydryl-5-chloro-2-formyl-1H-indol-3-yl)ethoxy]benzoic acid]
read-out: % Inhibition
  inhibition at 2.5 µM: 50%

## O=C(O)c1ccc(OCCc2c(CO)n(C(c3ccccc3)c3ccccc3)c3ccc(Cl)cc23)cc1 [Example 151, 4-{2-[1-benzhydryl-5-chloro-2-(hydroxymethyl)-1H-indol-3-yl]ethoxy}benzoic acid]
  inhibition at 3.3 µM: 50%

## COCc1c(CCOc2ccc(C(=O)O)cc2)c2cc(Cl)ccc2n1C(c1ccccc1)c1ccccc1 [Example 152, 4-{2-[1-benzhydryl-5-chloro-2-(methoxymethyl)-1H-indol-3-yl]ethoxy}benzoic acid]
  inhibition at 3.3 µM: 50%

## O=C(O)c1ccc(OCCc2c(CS(=O)(=O)c3ccccc3)n(C(c3ccccc3)c3ccccc3)c3ccc(Cl)cc23)cc1 [Example 153, 4-(2-{1-benzhydryl-5-chloro-2-[(phenylsulfonyl)methyl]-1H-indol-3-yl}ethoxy)benzoic acid]
read-out: % Inhibition
  inhibition at 3 µM: 50%

## CS(=O)(=O)Cc1c(CCOc2ccc(C(=O)O)cc2)c2cc(Cl)ccc2n1C(c1ccccc1)c1ccccc1 [Example 154, 4-(2-{1-benzhydryl-5-chloro-2-[(methylsulfonyl)methyl]-1H-indol-3-yl}ethoxy)benzoic acid]
Conc 5.5 uM, read-out: % Inhibition
  inhibition at 5.5 µM: 50%

## O=C(O)c1ccc(OCCc2c(COCc3ccccc3[N+](=O)[O-])n(C(c3ccccc3)c3ccccc3)c3ccc(Cl)cc23)cc1 [Example 155, 4-[2-(1-benzhydryl-5-chloro-2-{[(2-nitrobenzyl)oxy]methyl}-1H-indol-3-yl)ethoxy]benzoic acid]
Conc 2.2 uM, read-out: % Inhibition
  inhibition at 2.2 µM: 50%

## O=C(O)c1ccc(OCCc2c(COCc3c(F)cccc3F)n(C(c3ccccc3)c3ccccc3)c3ccc(Cl)cc23)cc1 [Example 156, 4-[2-(1-benzhydryl-5-chloro-2-{[(2,6-difluorobenzyl)oxy]methyl}-1H-indol-3-yl)ethoxy]benzoic acid]
Conc 1 uM, read-out: % Inhibition
  inhibition at 1 µM: 50%

## O=C(O)c1ccc(S(=O)(=O)CCc2c(CO)n(C(c3ccccc3)c3ccccc3)c3ccc(Cl)cc23)cc1 [Example 157, 4-({2-[1-benzhydryl-5-chloro-2-(hydroxymethyl)-1H-indol-3-yl]ethyl}sulfonyl)benzoic acid]
Conc 3.8 uM, read-out: % Inhibition
  inhibition at 3.8 µM: 50%

## O=C(O)c1ccc(OCCc2c(COCc3ccccn3)n(C(c3ccccc3)c3ccccc3)c3ccc(Cl)cc23)cc1 [Example 158, 4-(2-{1-benzhydryl-5-chloro-2-[(2-pyridinylmethoxy)methyl]-1H-indol-3-yl}ethoxy)benzoic acid]
Conc 1.7 uM
  inhibition at 1.7 µM: 50%

## O=C(O)c1ccc(OCCc2c(COCc3ccncc3)n(C(c3ccccc3)c3ccccc3)c3ccc(Cl)cc23)cc1 [Example 159, 4-(2-{1-benzhydryl-5-chloro-2-[(4-pyridinylmethoxy)methyl]-1H-indol-3-yl}ethoxy)benzoic acid]
Conc 4.2 uM, read-out: % Inhibition
  inhibition at 4.2 µM: 50%

## O=C(O)c1ccc(OCCc2c(COCc3ccccc3)n(C(c3ccccc3)c3ccccc3)c3ccc(Cl)cc23)cc1 [Example 160, 4-(2-{1-benzhydryl-2-[(benzyloxy)methyl]-5-chloro-1H-indol-3-yl}ethoxy)benzoic acid]
Conc 2 uM, read-out: % Inhibition
  inhibition at 2 µM: 50%

## O=C(O)c1ccc(OCCc2c(COCc3ccc(F)cc3)n(C(c3ccccc3)c3ccccc3)c3ccc(Cl)cc23)cc1 [Example 161, 4-[2-(1-benzhydryl-5-chloro-2-{[(4-fluorobenzyl)oxy]methyl}-1H-indol-3-yl)ethoxy]benzoic acid]
Conc 1.8 uM, read-out: % Inhibition
  inhibition at 1.8 µM: 50%
